The subject of one data set is MTAP null tumors. Set-up: method as in PMID 39282709. Conditions: patients with MTAP null tumors; cited from earlier work.
The target of another data set is T1, PRMT5:MEP50 complex (Homo sapiens, UniProt O14744).
T1 construct: FLAG (N); purchased Reaction Biology Corp HMT-2-148; host or cells: insect cells (baculovirus)
Nature of the data set: Thermal Stability Assay (TSA), thermal shift. The data set is classed as binding. Conditions: for stabilization of the complex by cofactor alone: cofactor added to apo complex (10 µM SIN, 10 µM SAM, or 5 µM MTA). As to the method: 0.1 µM PRMT5:MEP50 complex was incubated with compounds in a buffer consisting of 50 mM Tris-HCl pH 8.0, 50 mM NaCl, 1 mM TCEP, and 4xSypro Orange (Thermo Fisher, S-6650) in the absence or presence of cofactor (10 µM SIN, 10 µM SAM, or 5 µM MTA) and read on a StepOne™ Real-Time PCR machine (Applied Biosystems™) using a temperature ramp of 0.5 °C/min over a range of 25 to 95 °C.

The subject of a further data set is HCT116 MTAP WT tumors. Put plainly: Contralateral tumor model, tumor SDMA ELISA, WT tumors. The data set is classed as in vivo, mouse. The following applies: parental (MTAP WT) tumors, daily for 4 d. The procedure:
(§1) Mice were implanted contralaterally on their flanks with parental and MTAP-deleted HCT116 cells such that each mouse would carry one WT and one MTAP-deleted tumor (Fig. 4A). This design eliminates variance in compound exposures between groups and allows direct assessment of MTAP status impact on compound effects. […] Four hours post the fourth dose, tumors were analyzed for SDMA content by ELISA. […] This confirms the MTA-selective action of AM-9934 in the tumor setting.
(§2) HCT116 colon carcinoma WT and MTAP^−^/^− isogenic cells were determined to be free of contamination with mycoplasma as well as a panel of murine viral pathogens in addition to being authenticated. Mice were inoculated s.c. with 2 × 10^6 HCT116 WT cells on the left flank and 2 × 10^6 HCT116 MTAP^−^/^− cells on the right flank in 33% Matrigel. Mice were enrolled once both tumors reached 250 to 500 mm^3 and randomized into vehicle vs. PRMT5i treated groups (N = 3). Vehicle or PRMT5i treatment started on day 14 postimplantation orally and treated once daily for 4 d. […]
(§3) Preparation of protein lysates from snap-frozen tumors was carried out as follows: samples were collected in a Covaris Tissue Tube (520001 TT1) to be used in conjunction with the CryoPrep. […] The protein concentration of each lysate was then determined using a BCA assay. […]

The test system of the next data set is HCT116 MTAP Null tumors. Put plainly: Contralateral tumor model, tumor SDMA ELISA, MTAP-deleted tumors. The data set is classed as in vivo, mouse. Conditions: daily for 4 d. As to the method:
as §1, §2, §3

Data set [1] relates to Parental HCT116 cells (MTAP WT). Nature of the data set: SDMA high-content imaging assay, parental cells. The data set is classed as cell-based. The following applies: Homo sapiens, HCT-116, 72 h, read-out: IC50, reduction of cellular SDMA. The procedure: (§4) Cells were seeded into 96-well plates and incubated with compound for 3 d before fixing with 4% PFA (in 1× PBS) for 15 min. Cells were then washed once with Wash Buffer (1× PBS + 1% BSA + 0.2% Triton X-100), 100 µL/well for 15 min before blocking for 1 h Using Licor Odyssey blocking reagent ([…]) (100 µL/well). After three washes in Wash Buffer, cells were then stained for 2 h with anti-SDMA antibody (1:2,000 in Wash Buffer), washed three times in Wash Buffer, stained for 1 h in the dark using anti-rabbit Alexa-488 (1:2,000 in Wash Buffer) and Hoechst 33342 (1:5,000), followed by three washes in Wash Buffer before quantifying on a Cellomics Array Scan image system.

The subject of data set [2] is MTAP-deleted HCT116 cells. Nature of the data set: SDMA high-content imaging assay, MTAP-deleted cells. The class given is cell-based. Conditions: Homo sapiens, HCT-116, 72 h, read-out: IC50, reduction of cellular SDMA. As to the method:
as §4

In data set [3] the test system is Parental HCT116 cells (MTAP WT). Put plainly: Cell viability (CellTiter-Glo), parental cells. The class given is cell-based. The following applies: Homo sapiens, read-out: IC50, cell viability. The procedure: (§5) Parental (HD PAR-034) and MTAP^−^/^− (HD R02-033) colorectal cancer HCT116 cell lines were obtained from Horizon Discovery and maintained in RPMI1640 supplemented with 10% fetal bovine serum and antibiotics or in McCoy 5A supplemented with 10% fetal bovine serum (for mouse experiments). Other cell lines were obtained from ATCC and maintained according to instructions. Effects of compounds on cell viability were assessed using the CellTiter-Glo Kit from Promega (G7571) after 6 d of compound incubation and quantified using an EnVision® 2105 multimode plate reader (PerkinElmer) in luminescence mode.

The subject of data set [4] is MTAP-deleted HCT116 cells. Nature of the data set: Cell viability (CellTiter-Glo), MTAP-deleted cells. The data set is classed as cell-based. Conditions: Homo sapiens, read-out: IC50, cell viability. As to the method: as §5
Data set [5] relates to 24-cell line panel of MTAP WT and MTAP-deleted cell lines. Nature of the data set: Cell viability across 24-cell line panel. The class given is cell-based. Conditions: MTAP WT vs MTAP-deleted. As to the method: as §5
The next data set is described as follows: in vitro. The following applies: human, primary bone marrow-derived megakaryocytes.
The nature of data set [6]: Blood/tumor compound concentrations in contralateral tumor model. The data set is classed as in vivo, mouse. Conditions: 4 h post last dose, 50-200 mg/kg. The procedure: HCT116 colon carcinoma WT and MTAP^−^/^− isogenic cells were determined to be free of contamination with mycoplasma as well as a panel of murine viral pathogens in addition to being authenticated. Mice were inoculated s.c. with 2 × 10^6 HCT116 WT cells on the left flank and 2 × 10^6 HCT116 MTAP^−^/^− cells on the right flank in 33% Matrigel. Mice were enrolled once both tumors reached 250 to 500 mm^3 and randomized into vehicle vs. PRMT5i treated groups (N = 3). Vehicle or PRMT5i treatment started on day 14 postimplantation orally and treated once daily for 4 d. Blood was collected at 4 h post–last dose (day 17 postimplantation) for pharmacokinetic analysis in Microtainer tubes containing lithium heparin. Blood was centrifuged at 7,000 rpm at 4 °C for 7 min. Tumors from both sides were also collected and snap-frozen for pharmacokinetic analysis and SDMA ELISA. Plasma and tumors were collected and stored at −80 °C until analysis.

The subject of data set [7] is arginine-, lysine-, and DNA-methyltransferases. Put plainly: Methyltransferase panel profiling (BPS Bioscience): other methyltransferases. The following applies: tested up to 10 µM.

T1 sequence (O14744 2-637 limits assumed): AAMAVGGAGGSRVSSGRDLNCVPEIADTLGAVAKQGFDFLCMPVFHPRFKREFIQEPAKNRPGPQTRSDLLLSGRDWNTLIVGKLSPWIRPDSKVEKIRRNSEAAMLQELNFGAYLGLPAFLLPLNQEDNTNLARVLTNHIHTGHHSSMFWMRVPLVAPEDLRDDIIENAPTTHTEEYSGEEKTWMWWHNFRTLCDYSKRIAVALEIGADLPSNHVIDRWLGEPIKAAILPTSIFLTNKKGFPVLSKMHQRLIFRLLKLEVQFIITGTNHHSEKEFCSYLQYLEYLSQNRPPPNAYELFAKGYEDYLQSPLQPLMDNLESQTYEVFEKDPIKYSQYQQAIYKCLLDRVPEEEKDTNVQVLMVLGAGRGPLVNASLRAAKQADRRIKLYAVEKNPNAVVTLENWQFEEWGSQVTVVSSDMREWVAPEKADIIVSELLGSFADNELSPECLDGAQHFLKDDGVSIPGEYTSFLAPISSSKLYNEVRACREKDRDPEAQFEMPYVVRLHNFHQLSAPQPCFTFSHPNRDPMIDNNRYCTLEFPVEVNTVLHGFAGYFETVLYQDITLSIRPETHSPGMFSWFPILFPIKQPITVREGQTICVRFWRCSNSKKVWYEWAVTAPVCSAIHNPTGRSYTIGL
T1 sequence (Q9BQA1 2-342 partner limits assumed): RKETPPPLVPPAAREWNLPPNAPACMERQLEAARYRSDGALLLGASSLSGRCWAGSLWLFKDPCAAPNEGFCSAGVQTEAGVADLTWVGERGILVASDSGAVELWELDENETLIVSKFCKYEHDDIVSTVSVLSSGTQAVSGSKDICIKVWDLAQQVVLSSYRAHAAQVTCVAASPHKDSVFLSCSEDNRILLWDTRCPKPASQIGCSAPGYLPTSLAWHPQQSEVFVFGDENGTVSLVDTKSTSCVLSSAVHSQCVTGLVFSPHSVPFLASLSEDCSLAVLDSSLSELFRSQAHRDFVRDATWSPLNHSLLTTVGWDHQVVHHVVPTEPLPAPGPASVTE

As for `Nc1nc2cnc(C(=O)N3CCOC[C@@H]3c3ccc(C(F)(F)F)cc3)cc2c2c1COC2` [AMG 193], the “antitumor responses in patients” value in the data set with MTAP null tumors is “initial antitumor responses”.

Turning to `CSC[C@H]1O[C@@H](n2cnc3c(N)ncnc32)[C@H](O)[C@@H]1O` [MTA, methylthioadenosine], the “stabilization of the complex by cofactor alone” value (from here on “stabilization of the complex”) on PRMT5:MEP50 complex is recorded as below 0.5 K.

For `Nc1ncnc2c1ncn2[C@@H]1O[C@H](C[C@@H](N)CC[C@H](N)C(=O)O)[C@@H](O)[C@H]1O` [SIN, sinefungin], the “stabilization of the complex” value at PRMT5:MEP50 complex is below 0.5 K.

As to `CC(=O)N1CCC(Nc2cc(C(=O)NC[C@H](O)CN3CCc4ccccc4C3)ncn2)CC1` [GSK3326595], the “suppression of tumor SDMA levels (in words)” value in the data set with HCT116 MTAP WT tumors and in the data set with HCT116 MTAP Null tumors was “marked suppression” each time.

For orientation: IC50 means the concentration needed to halve the response being measured. In the case of `O=C(NC[C@H](O)CN1CCc2ccccc2C1)c1cc(NC2COC2)ncn1` [EPZ015666], the “stabilization of the MTA-bound complex” value on PRMT5:MEP50 complex (MTA-bound complex, compound 10 µM) is recorded as “no stabilization”. In addition, the “stabilization of the SAM-bound complex” value at PRMT5:MEP50 complex (SAM-bound complex, compound 10 µM) is on record as “showed an interaction”. For the same molecule, at PRMT5:MEP50 complex (SIN-bound complex, compound 10 µM), the “stabilization of the SIN-bound complex” value was “showed an interaction”. Further, the IC50 is 9.6 nM in data set [1] (parental HCT116, 3 d incubation); 4.3 nM in [2] (MTAP-deleted HCT116, 3 d incubation); 890 nM in data set [3] (HCT-116, parental HCT116, 6 d incubation); 600 nM in data set [4] (HCT-116, MTAP-deleted HCT116, 6 d incubation); 360 nM in “in vitro”. Further, in data set [5], the “discrimination of viability potency by MTAP status” value is on record as “did not significantly discriminate”.

On to `Cc1cc2cc(C(=O)N(Cc3ccc(C(F)(F)F)cn3)CC(C)C)ccc2nc1N` [AM-9934], for which the “stabilization in the presence of MTA” value at PRMT5:MEP50 complex (MTA-bound complex, compound 0.1 µM) is on record as 9.3 K. Moreover, the IC50 in data set [1] was determined as 143 nM; in data set [2], 9.2 nM; in data set [3] (HCT-116, […]), 4100 nM; in [4] (HCT-116, […]) it was 160 nM; in the data set “in vitro”, 3100 nM. Besides, the “discrimination of viability potency by MTAP status” value in [5] is “significantly higher potency toward MTAP-deleted cell lines”. The “suppression of tumor SDMA levels (in words)” value in the data set on HCT116 MTAP WT tumors is reported as “insignificant at lower doses”; in the data set on HCT116 MTAP Null tumors, “all three doses reached significant levels of SDMA suppression”. Further, the “exposures (blood/tumor compound concentrations)” value in [6] was “exposures increased with dose”. For the same molecule, in data set [7], the “inhibitory activity toward the other tested methyltransferases” value is “No significant inhibitory activity”.

`C[S+](CC[C@H](N)C(=O)[O-])C[C@H]1O[C@@H](n2cnc3c(N)ncnc32)[C@H](O)[C@@H]1O` (some centres unmarked) [SAM, S-Adenosyl methionine]: on PRMT5:MEP50 complex, the “stabilization of the complex” value is given as below 0.5 K.

Values taken from article PMC12107103, “MTA-cooperative PRMT5 inhibitors from cofactor-directed DNA-encoded library screens” (Proceedings of the National Academy of Sciences of the …, 2025).
